Laboratory results from patent US11298314B2, “Injectable composition for localized fat reduction without pain, edema, and side effects, and method for preparing same” (AMI PHARM CO., LTD., priority 2017, dated 2022).
Entries after “also recorded” stand apart in the source; their conditions may differ.

Assays:
paw of the rats = assay: Rat paw edema; type: in vivo, Sprague Dawley rats; conditions: for degree of edema in words: 2 hours after administration, rat paw; for degree of edema, 1 hour after administration / degree of edema, 2 hours after administration / degree of edema, Immediately after administration: 0.1 ml into rat paw
Method in brief: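 Male Sprague Dawley rats (6 weeks old, 170–200 g) received 0.1 ml of PBS or test composition into the paw. Paw thickness measured by caliper before, immediately after, and 1 or 2 h post-injection; edema graded 0–4, with injection-site skin lesions photographed.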

sole of the rat paws = assay: Measurement of skin lesion (erythema) on rat paw; type: in vivo, Sprague Dawley rats; conditions: for skin lesion (erythema) in words: 2 hours after administration;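 on grade of skin lesion (erythema), 1 hour after administration: grades − to ++++ mean no to extremely severe erythema versus before injection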;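 on grade of skin lesion (erythema), 2 hours after administration: grades − to ++++ mean no to extremely severe erythema versus before injection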;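 on grade of skin lesion (erythema), Immediately after administration: grades − to ++++ mean no to extremely severe erythema versus before injection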
Method in brief: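 Male Sprague Dawley rats (6 weeks, 170–200 g) received 0.1 ml test composition or PBS injected into the paw. Paw thickness measured by caliper before, immediately after, and 1 or 2 h post-injection; sole lesions photographed and graded 0–4.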

[1] = tested on: tissues of the injected area (rat paw); assay: H&E staining histological test (inflammation) of injected rat paw; type: in vivo, Sprague Dawley rats; conditions: bile acid single composition 1.0% (w/v), injected rat paw
Procedure: The tissues of the injected area were dissected, fixed with 10% formalin, and then the specimen was prepared and images were captured using an optical microscope. The degree of inflammation was evaluated as follows.

[2] = tested on: Caspase 3 in 3T3-L1 adipocytes; assay: Caspase 3 activity assay; type: cell-based
Procedure: The Caspase 3 activity assay was performed with the test materials to determine whether the cell death in the result of MTT assay was due to necrosis or apoptosis. The Caspase 3 specifically increases when apoptosis occurs and is a marker of apoptosis. […] The cells were then treated with 50 ul of cell lysis buffer (10 mM Tris-HCl, 10 mM NaH2PO4/NaHPO4, pH 7.5, 130 mM NaCl, 1% Triton X-100 and 10 mM sodium pyrophosphate) and left at 4° C. for […]. The supernatant was collected by centrifugation at 1000× rpm for 1 minute, and protein quantification was performed by BCA method. The 50 μl of reaction buffer (4 mM HEPES, pH 7.5, 10% glycerol, 2 mM dithiothreitol) and 0.5 μl of 4 mM DEVD-p-NA were added to each sample and reacted at 37° C. for 1 hour. Then wavelength was measured with a […] at 405 nm.

3T3-L1 adipocytes = assay: Lipolysis assay (glycerol release); type: cell-based; conditions: 48 hours; listed as DCA single
Procedure: The glycerol activity assay was performed with the test materials to determine whether the cell death in the MTT assay was due to necrosis or lipolysis. Glycerol is a specific marker that increases when fat breaks down. Abcam Lipolysis Assay Kit (Colorimetric) was used according to the manufacturer's manual, and the method of the test was as follows: […] And then the lysis was induced. […] After adding the glycerol assay complex (50 μl) thereto, the solution was incubated at room temperature for 30 minutes. Absorbance was measured at OD 570 (using standard curve for absolute determination).

inguinal fat pad = conditions: 0.2 ml s.c. once into inguinal fat pad, 8 days post-injection; listed as DCA single composition
[3] = Formulation stability of PPC injectable preparations: property, transparency, particle size, pH; conditions: based on PPC 5.0%
[4] = bile acid single composition 1.0% (w/v)
[5] = bile acid single composition 2.5% (w/v)
[6] = bile acid single composition 5.0% (w/v)
[7] = bile acid single composition 7.5% (w/v)

- degree of edema in words (paw of the rats; listed as DCA 1.0%): severe
- degree of edema in words (paw of the rats; listed as DCA 2.5%): “severe” and “extremely severe”
- skin lesion (erythema) in words (sole of the rat paws; listed as DCA 1.0%): Moderate
- skin lesion (erythema) in words (sole of the rat paws; listed as DCA 2.5%): “severe” and “extremely severe”
- grade of skin lesion (erythema), 1 hour after administration (sole of the rat paws; [4]): ++
- grade of skin lesion (erythema), 2 hours after administration (sole of the rat paws; [4]): ++
- grade of skin lesion (erythema), Immediately after administration (sole of the rat paws; [4]): ++
- grade of skin lesion (erythema), 1 hour after administration (sole of the rat paws; [5]): ++++
- grade of skin lesion (erythema), 2 hours after administration (sole of the rat paws; [5]): +++
- grade of skin lesion (erythema), Immediately after administration (sole of the rat paws; [5]): ++
- grade of skin lesion (erythema), 1 hour after administration (sole of the rat paws; [6]): ++++
- grade of skin lesion (erythema), 2 hours after administration (sole of the rat paws; [6]): ++++
- grade of skin lesion (erythema), Immediately after administration (sole of the rat paws; [6]): ++
- grade of skin lesion (erythema), 1 hour after administration (sole of the rat paws; [7]): ++++
- grade of skin lesion (erythema), 2 hours after administration (sole of the rat paws; [7]): ++++
- grade of skin lesion (erythema), Immediately after administration (sole of the rat paws; [7]): ++
- Inflammation (H&E), BA % (w/v) 1.0 [1]: +++
- caspase-3 activity ([2]; after 48 hours): returned to pretreatment levels
- caspase-3 activity ([2]; up to 24 hours): some caspase-3 activity
- inflammation at the site of administration, dermal and epidermal tissues (inguinal fat pad): severe inflammation was induced
- bile acid concentration at which stable injectable preparations can be made [3]: ≥ 2.1%
SMILES: C[C@H](CCC(=O)O)[C@H]1CC[C@H]2[C@@H]3CC[C@@H]4C[C@H](O)CC[C@]4(C)[C@H]3C[C@H](O)[C@]12C [DCA, (4R)-4-[(3R,5R,8R,9S,10S,12S,13R,14S,17R)-3,12-dihydroxy-10,13-dimethyl-2,3,4,5,6,7,8,9,11,12,14,15,16,17-tetradecahydro-1H-cyclopenta[a]phenanthren-17-yl]pentanoic acid]
- degree of edema, 1 hour after administration (paw of the rats; [4]): +++ (severe edema [+++, (the degree of swelling was 40-60% compared to before the injection)])
- degree of edema, 2 hours after administration (paw of the rats; [4]): +++ (severe edema [+++, (the degree of swelling was 40-60% compared to before the injection)])
- degree of edema, Immediately after administration (paw of the rats; [4]): ++ (moderate edema [++, (the degree of swelling was 20-40% compared to before the injection)])
- degree of edema, 1 hour after administration (paw of the rats; [5]): ++++ (extremely severe edema [++++, (the degree of swelling was 60% or more compared to before the injection)])
- degree of edema, 2 hours after administration (paw of the rats; [5]): ++++ (extremely severe edema [++++, (the degree of swelling was 60% or more compared to before the injection)])
- degree of edema, Immediately after administration (paw of the rats; [5]): ++ (moderate edema [++, (the degree of swelling was 20-40% compared to before the injection)])
- degree of edema, 1 hour after administration (paw of the rats; [6]): ++++ (extremely severe edema [++++, (the degree of swelling was 60% or more compared to before the injection)])
- degree of edema, 2 hours after administration (paw of the rats; [6]): ++++ (extremely severe edema [++++, (the degree of swelling was 60% or more compared to before the injection)])
- degree of edema, Immediately after administration (paw of the rats; [6]): ++ (moderate edema [++, (the degree of swelling was 20-40% compared to before the injection)])
- degree of edema, 1 hour after administration (paw of the rats; [7]): ++++ (extremely severe edema [++++, (the degree of swelling was 60% or more compared to before the injection)])
- degree of edema, 2 hours after administration (paw of the rats; [7]): ++++ (extremely severe edema [++++, (the degree of swelling was 60% or more compared to before the injection)])
- degree of edema, Immediately after administration (paw of the rats; [7]): ++ (moderate edema [++, (the degree of swelling was 20-40% compared to before the injection)])
- glycerol release / cytolytic activity (3T3-L1 adipocytes): slightly higher cytolytic activity than at 24 hours; also recorded: slightly higher cytolytic activity than that of 24 hours
